Test results reported in US8703805B2 (Exelixis Patent Company LLC, priority 2005, dated 2014).

These compounds were tested on LXRα and/or LXRβ (assay: LXR/LXRE co-transfection assay (luciferase reporter, CV-1 cells)). Settings: IC50 or EC50 for LXR (LXRα and/or LXRβ, not distinguished), tested as described in Example 109, CV-1 cells.
Type: cell-based, human
From the text: To measure the ability of compounds to activate or inhibit the transcriptional activity of LXR in a cell based assay, the co-transfection assay was used. It has been shown that LXR functions as a heterodimer with RXR. For the co-transfection assay; expression plasmids for LXR and RXR are introduced via transient transfection into mammalian cells along with a luciferase reporter plasmid that contains one copy of a DNA sequence that is bound by LXR-RXR heterodimers (LXRE; Willy, P. ad. 1995). Treatment of transfected cells with an LXR agonist increases the transcriptional activity of LXR, which is measured by an increase in luciferase activity.
CV-1 African Green Monkey Kidney Cells Co-transfection expression plasmids, comprising full-length LXRα (pCMX-h LXRα, LXRβ (pCMX-hLXRβ), or RXRα (pCMX-RXR), reporter plasmid (LXREx1-Tk-Luciferase), and control (pCMX-Galactosidase expression vector) (Willey et al. Genes & Development 91033-1045 (1995)). Transfection reagent such as FuGENE6 (Roche). 1× Cell lysis buffer (1% Triton X 100 (IT Baker X200-07), 10% Glycerol (JT Baker M778-07), 5 mM Ditriotreitol (Quantum Bioprobe DTT03; add fresh before lysing), 1 mM EGTA (Ethylene Glycol-bis(B-Amino ethyl ether)-N,N,N′,N′-Tetracetic Acid) (Sigma E-4378), 25 mM Tricine (ICN 807420) pH 7.8) 1× Luciferase assay buffer (pH at 7.8) (0.73 mM ATP, 22.3 mM Tricine, 0.11 mM EDTA, 33.3 mM DTT) 1× Luciferrin/CoA (11 mM Luciferin, 3.05 mM Coenzyme A, 10 mM HEPES) Preparation of Screening Reagents
CV-1 cells were prepared 24 hours prior to the experiment by plating them into T-175 flasks or 500 cm^2 dishes in order to achieve 70-80% confluency on the day of the transfection. The number of cells to be transfected was determined by the number of plates to be screened. each 384 well plate requires 1.92×10^6 cells or 5000 cells per well. DNA Transfection Reagent was prepared by mixing the required plasmid DNAs with a cationic lipid transfection reagent FuGENE6 (Roche) by following the instructions provided with the reagents. Optimal DNA amounts were determined empirically per cell line and size of vessel to be transfected. 10-12 mL of media was added to the DNA Transfection Reagent and this mixture was added to the cells after aspirating media from the T175 cm^2 flask. Cells were then incubated at least 5 hours at 37° C. to prepare screening cells.
Luciferase assay reagent was prepared by combining before use (per 10 mL): […], 0.54 mL of 1× Luciferrin/CoA; 0.54 mL of 0.2 M Magnesium sulfate
Assay plates were prepared by dispensing 5 μL of compound per well of a 384 well plate to achieve final compound concentration of 10 μM and no more than 1% DMSO. Media was removed from the screening cells, the cells trypsinized, harvested cells by centrifugation, counted, and plated at a density of approximately 5000 cells per well in the 384 well assay plate prepared above in a volume of about 45 μL. Assay plates containing both compounds and screening cells (50 μL in total volume) were incubated for 20 hours at 37° C.
After incubation with compounds, media was removed from the cells and lysis buffer (30 μL/well) added. After 30 minutes at ambient temperature, luciferase assay buffer (30 μL/well) was added and the assay plates read on a luminometer (PE Biosystems Northstar reader with on-board injectors, or equivalent). Plates were read immediately after addition of luciferase assay buffer.
The LXR/LXRE co-transfection assay can be used to establish the EC50/IC50 values for potency and percent activity or inhibition for efficacy. Efficacy defines the activity of a compound relative to a high control ((N-(3-((4-fluorophenyl)-(naphthalene-2-sulfonyl)amino)propyl)-2,2-dimethylpropionamide)) or a low control (DMSO/vehicle). The dose response curves are generated from an 8 point curve with concentrations differing by ½ LOG units. each point represents the average of 4 wells of data from a 384 well plate. […]

EC50 [nM]	Compound
< 1000	CCc1ccccc1-n1nc(C(C)(C)O)cc1-c1ccc(-c2cccc(S(C)(=O)=O)c2)s1 [Example 1329, 2-[1-(2-ethylphenyl)-5-{5-[3-(methylsulfonyl)phenyl]-2-thienyl}-1H-pyrazol-3-yl]propan-2-ol]
1000 to 10000	CCS(=O)(=O)c1cccc(-c2ccc(-c3cc(C(C)(C)O)nn3-c3ccccc3Cl)s2)c1 [Example 1316, 2-[1-(2-chlorophenyl)-5-{5-[3-(ethylsulfonyl)phenyl]-2-thienyl}-1H-pyrazol-3-yl]propan-2-ol]
< 1000	CC(C)(O)c1cc(-c2ccc(-c3cccc(S(C)(=O)=O)c3)cc2)n(-c2ccccc2C(F)(F)F)n1 [Example 1201, 2-{5-[3′-(methylsulfonyl)biphenyl-4-yl]-1-[2-(trifluoromethyl)phenyl]-1H-pyrazol-3-yl}propan-2-ol]
1000 to 10000	COc1cccc(-c2ccc(-c3cc(C(C)(C)O)nn3-c3ccccc3Cl)s2)c1OC [Example 859, 2-[5-{5-[2,3-bis(methyloxy)phenyl]-2-thienyl}-1-(2-chlorophenyl)-1H-pyrazol-3-yl]propan-2-ol]
1000 to 10000	CS(=O)(=O)c1cccc(-c2ccc(-c3cc(C(=O)NCCN4CCOCC4)nn3-c3ccccc3Cl)s2)c1 [Example 590, 1-(2-chlorophenyl)-5-{5-[3-(methylsulfonyl)phenyl]-2-thienyl}-N-(2-morpholin-4-ylmethyl)-1H-pyrazole-3-carboxamide]
< 1000	CC(C)(O)c1cc(-c2ccc(-c3cccc(S(C)(=O)=O)c3)s2)n(-c2ccccc2)n1 [Example 1262, 2-(5-{5-[3-(methylsulfonyl)phenyl]-2-thienyl}-1-phenyl-1H-pyrazol-3-yl)propan-2-ol]
< 1000	CC(C)(O)c1nn(-c2cccnc2C(F)(F)F)c(-c2ccc(-c3cccc(S(C)(=O)=O)c3)cc2Cl)c1Cl [Example 1387, 2-(4-chloro-5-(3-chloro-3′-(methylsulfonyl)biphenyl-4-yl)-1-(2-(trifluoromethyl)pyridin-3-yl)-1H-pyrazol-3-yl)propan-2-ol]
< 1000	Cc1cc(-c2cccc(S(C)(=O)=O)c2)ccc1-c1cc(C(C)(C)O)nn1-c1cccnc1C(F)(F)F [Example 1390, 2-(5-(3-methyl-3′-(methylsulfonyl)biphenyl-4-yl)-1-(2-(trifluoromethyl)pyridin-3-yl)-1H-pyrazol-3-yl)propan-2-ol]
1000 to 10000	CC(C)(O)c1cc(-c2cc(-c3cccc(S(C)(=O)=O)c3)cs2)n(-c2ccccc2Cl)n1 [Example 1250, 2-[1-(2-chlorophenyl)-5-{4-[3-(methylsulfonyl)phenyl]-2-thienyl}-1H-pyrazol-3-yl]propan-2-ol]
< 1000	CC(C)(O)c1cc(-c2c(Cl)cccc2Cl)n(-c2ccc(-c3cccc(S(C)(=O)=O)c3)cc2Cl)n1 [Example 124, 2-(1-(3-chloro-3′-(methylsulfonyl)nbiphenyl-4-yl)-5-(2,6-dichlorophenyl)-1H-pyrazol-3-yl)propan-2-ol]
1000 to 10000	CC(C)(O)c1cc(-c2ccc(-c3ccc(C=O)s3)cc2)n(-c2ccccc2Cl)n1 [Example 1289, 5-{4-[1-(2-chlorophenyl)-3-(1-hydroxy-1-methylethyl)-1H-pyrazol-5-yl]phenyl}thiophene-2-carbaldehyde]
1000 to 10000	CC(C)(C(=O)O)c1cccc(-c2ccc(-c3cc(C(F)(F)F)nn3-c3ncccc3C(F)(F)F)s2)c1 [Example 1165, 2-methyl-2-[3-(5-{3-(trifluoromethyl)-1-[3-(trifluoromethyl)pyridin-2-yl]-1H-pyrazol-5-yl}-2-thienyl)phenyl]propanoic acid]
1000 to 10000	COC(=S)c1cc(-c2ccc(-c3cccc(S(C)(=O)=O)c3)s2)n(-c2ccccc2C(F)(F)F)n1 [Example 1179, O-methyl 5-{5-[3-(methylsulfonyl)phenyl]-2-thienyl}-1-[2-(trifluoromethyl)phenyl]-1H-pyrazol-3-carbothioate]

Compound	EC50 [nM]
1-(5-(1-(2-chlorophenyl)-3-(trifluoromethyl)-1H-pyrazol-5-yl)thiophen-2-ylsulfonyl)-4-methylpiperazine [Example 69]	< 1000
